The values below come from patent US8124778B2, “Tricyclic inhibitors of fatty acid amide hydrolase” (The Scripps Research Institute, priority 2007, dated 2012).

In this experiment the target is T1, purified recombinant rat FAAH (Rattus norvegicus, UniProt P97612).
T1 construct: The truncated rat FAAH (rFAAH) was expressed in E. coli and purified as described; made in house; host or cells: E. coli
T1 sequence (P97612 30-579 limits assumed): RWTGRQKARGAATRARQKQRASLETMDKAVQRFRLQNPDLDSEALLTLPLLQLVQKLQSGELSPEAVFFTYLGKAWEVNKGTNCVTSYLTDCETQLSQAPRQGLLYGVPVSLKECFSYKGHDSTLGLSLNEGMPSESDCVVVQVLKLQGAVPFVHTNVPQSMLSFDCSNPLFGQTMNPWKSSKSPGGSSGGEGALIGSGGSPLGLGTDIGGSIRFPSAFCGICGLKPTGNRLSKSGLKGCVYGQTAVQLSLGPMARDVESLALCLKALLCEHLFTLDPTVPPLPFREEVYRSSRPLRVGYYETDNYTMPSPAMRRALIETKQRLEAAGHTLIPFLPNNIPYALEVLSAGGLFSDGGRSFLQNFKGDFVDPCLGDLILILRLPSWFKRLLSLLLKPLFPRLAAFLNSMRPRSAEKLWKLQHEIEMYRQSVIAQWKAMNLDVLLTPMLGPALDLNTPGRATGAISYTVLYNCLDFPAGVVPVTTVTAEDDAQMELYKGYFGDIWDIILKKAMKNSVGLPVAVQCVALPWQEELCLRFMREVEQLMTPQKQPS
Description: FAAH inhibition enzyme assay (14C-oleamide hydrolysis, Dixon plot). The format is biochemical. Conditions: rat FAAH. As for the experimental part: Enzyme assays were performed at 20-23° C. with purified recombinant rat FAAH expressed in E. coli (Patricelli, M. P.; Lashuel, H. A.; et al. Biochemistry 1998, 37, 15177-15187) (unless indicated otherwise) or with solubilized COS-7 membrane extracts from cells transiently transfected with human FAAH cDNA (Giang, D. K.; Cravatt, B. F. Proc. Natl. Acad. Sci. U.S.A. 1997, 94, 2238-2242) (where specifically indicated) in a buffer of 125 mM Tris/1 mM EDTA/0.2% glycerol/0.02% Triton X-100/0.4 mM Hepes, pH 9.0 buffer (Patricelli, M. P.; Patterson, J. P.; et al. Bioorg. Med. Chem. Lett. 1998, 8, 613-618). The initial rates of hydrolysis (≦10-20% reaction) were monitored using enzyme concentrations at least three times below the measured Ki by following the breakdown of ^14C-oleamide and Ki's (standard deviations are provided in Supporting Information tables) were established as described (Dixon plot) (Boger, D. L.; Sato, H.; et al. Proc. Natl. Acad. Sci. U.S.A. 2000, 97, 5044-5049). Lineweaver-Burk analysis previously established reversible, competitive inhibition (Boger, D. L.; Miyauchi, H.; et al. J. Med. Chem. 2005, 48, 1849-1856).
FAAH Inhibition. ^14C-labeled oleamide was prepared from ^14C-labeled oleic acid as described (Cravatt, B. F.; et al. Science 1995, 268, 1506-1509). The truncated rat FAAH (rFAAH) was expressed in E. coli and purified as described (Patricelli, M. P.; Lashuel, H. A.; et al. Biochemistry 1998, 37, 15177-15187). The purified recombinant rFAAH was used in the inhibition assays unless otherwise indicated. The full-length human FAAH (hFAAH) was expressed in COS-7 cells as described (Giang, D. K.; Cravatt, B. F. Proc. Natl. Acad. Sci. U.S.A. 1997, 94, 2238-2242), and the lysate of hFAAH-transfected COS-7 cells was used in the inhibition assays where explicitly indicated.
The inhibition assays were performed as described (Cravatt, B. F.; et al. Science 1995, 268, 1506-1509). In brief, the enzyme reaction was initiated by mixing 1 nM of rFAAH (800, 500, or 200 pM rFAAH for inhibitors with Ki≦1-2 nM) with 10 μM of ^14C-labeled oleamide in 500 μL of reaction buffer (125 mM TrisCl, 1 mM EDTA, 0.2% glycerol, 0.02% Triton X-100, 0.4 mM Hepes, pH 9.0) at room temperature in the presence of three different concentrations of inhibitor. The enzyme reaction was terminated by transferring 20 μL of the reaction mixture to 500 μL of 0.1 N HCl at three different time points. The ^14C-labeled oleamide (substrate) and oleic acid (product) were extracted with EtOAc and analyzed by TLC as detailed (Cravatt, B. F.; et al. Science 1995, 268, 1506-1509). The Ki of the inhibitor was calculated using a Dixon plot as described (standard deviations are provided in the Supporting Information tables) (Boger, D. L.; Sato, H.; et al. Proc. Natl. Acad. Sci. U.S.A. 2000, 97, 5044-5049). Lineweaver-Burk analysis was performed as described confirming competitive, reversible inhibition (Boger, D. L.; Miyauchi, H.; et al. J. Med. Chem. 2005, 48, 1849-1856).

Take `O=C(CCCCCCc1ccccn1)c1ncc(-c2ccccn2)o1` [5e, 1-Oxo-1-[5-(2-pyridyl)oxazol-2-yl]-7-(2-pyridyl)heptane]: the “FAAH inhibitory potency (in words)” value is on record as “reductions in the Ki”.
Consider `O=C(CCCCCCc1cccnc1)c1ncc(-c2ccccn2)o1` [5f, 1-Oxo-1-[5-(2-pyridyl)oxazol-2-yl]-7-(3-pyridyl)heptane], for which the “FAAH inhibitory potency (in words)” value was “reductions in the Ki”.
